Experimental data taken from article PMC5532363, “Synergistic blending of high-valued heterocycles inhibits growth of Plasmodium falciparum in culture and P. berghei infection in mouse model” (Scientific Reports, 2017).
Where two headings read alike, the source gives them in different places.

Assays:
P. falciparum W2 = assay: Fixed-ratio isobologram drug interaction assay with CQ/DHA, W2; assay type: cell-based, Plasmodium falciparum; details: PfW2
Procedure: A modified fixed-ratio isobologram method was used to assess interaction between CQ/DHA and Pht analogues. Briefly, a total of 5 solutions containing fixed-ratio mixtures of Pht derivatives with either CQ or DHA were prepared in the following ratios: 1:1, 2:1, 3:2, 2:3, and 1:4. The starting concentrations for ten 2 fold-serial dilutions across the microtiter plate were assigned so that the IC50 of each drug would be in the 5th serial dilution of the plate. Each drug was tested alone and at fixed ratios of its IC50. The assessment of drug interaction was based on the calculation of the fractional inhibitory concentration (FIC) of two drugs in the […]. FIC was calculated for each association by dividing the IC50 of the drug in the combination by the IC50 of the drug alone.

CQ resistant PfW2 strain = assay: SYBR Green I growth inhibition assay, P. falciparum W2 culture; assay type: cell-based; details: Plasmodium falciparum
Text: (§1) Antimalarial activity of all the listed Pht analogues was initially assessed on asynchronous cultures of P. falciparum 3D7 (Pf3D7) clone using the SYBR Green assay. […] The mean IC50 values are based on three separate experiments (Table 1).
The laboratory-adapted P. falciparum strains 3D7 (Africa; CQ sensitive) and W2 (Africa; CQ resistant), were acquired from Malaria Research and Reference Reagent Resource Center (MR4) (Manassas, VA, USA) and maintained with type O +ve erythrocytes suspended in continuous complete culture medium as described. Complete culture media consisted of 10.43 g/litre of RPMI 1640-HEPES supplemented with 10% (vol/vol) human AB serum, 92.6 mg/litre L-glutamine, 50 mg/liter hypoxanthine, 2 g/litre sodium bicarbonate (Sigma-Aldrich, St. Louis, MO). Incubation of cultures was at 37 °C and maintained in a low oxygen atmosphere (5% O2, 5% CO2, 90% N). The levels of parasitemia in the cultures were maintained at between 2 and 10%, with 5% hematocrit. Media was changed after every 24 hours and parasitemia monitored every 48 hours. Synchronous cultures were prepared by sorbitol lysis. Stock solutions of the Pht, Pht analogues, and DHA were prepared in absolute dimethyl sulfoxide (DMSO) while CQ was prepared in distilled water. The prepared drug stock solutions were used immediately or stored at −80 °C for not longer than one month before use. Stock solutions were further diluted in serum free RPMI 1640 media (stock solution solvent final conc. 0.05%) before performing a 2-fold serial dilution to achieve dose ranges of 0.2 µM to 100 µM (Pht and derivatives), 7.8 to 2,000 nM (CQ) and 0.17 to 87.5 nM (DHA). 25 μL of the drug diluents were aliquoted into 96 well plates and used immediately. Alternatively, the stock solutions were diluted in distilled water, 2-fold serial dilution performed on a 96 well plate and allowed to air dry in a laminar flow hood after which dried plates were stored at 4 °C until use. SYBR Green I assay technique with additional modification was used for drug susceptibility testing of the parasites. Parasite cultures of >1% parasitemia were diluted to 1% parasitemia and 2% hematocrit and 200 μL were transferred onto drug pre-dosed plates and incubated at 37 °C for 90 hours, [40]. […] Relative fluorescence units (RFU) were read using the Perkin Elmer Wallac 1420 fluorescence plate reader, with excitation and emission wavelengths of 485 nm and 535 nm respectively. The readouts values were aligned with corresponding drug doses and analysis performed by Graph-pad Prism software. The drug concentrations (x value) were transformed using X = Log[X] and plotted against the counts (y values) and the data analysed by non-linear regression (sigmoid dose-response/variable slope equation) to yield the IC50.

[1] = test system: P. falciparum 3D7 (Pf3D7), CQ sensitive; assay: SYBR Green I growth inhibition assay, asynchronous P. falciparum 3D7 culture; assay type: cell-based, Plasmodium falciparum; details: SYBR Green, mean of three experiments, NDR / No IC50 = no dose response
Text: as §1
The laboratory-adapted P. falciparum strains 3D7 (Africa; CQ sensitive) and W2 (Africa; CQ resistant), were acquired from Malaria Research and Reference Reagent Resource Center (MR4) (Manassas, VA, USA) and maintained with type O +ve erythrocytes suspended in continuous complete culture medium as described. Complete culture media consisted of 10.43 g/litre of RPMI 1640-HEPES supplemented with 10% (vol/vol) human AB serum, 92.6 mg/litre L-glutamine, 50 mg/liter hypoxanthine, 2 g/litre sodium bicarbonate (Sigma-Aldrich, St. Louis, MO). Incubation of cultures was at 37 °C and maintained in a low oxygen atmosphere (5% O2, 5% CO2, 90% N). The levels of parasitemia in the cultures were maintained at between 2 and 10%, with 5% hematocrit. Media was changed after every 24 hours and parasitemia monitored every 48 hours. Synchronous cultures were prepared by sorbitol lysis. Stock solutions of the Pht, Pht analogues, and DHA were prepared in absolute dimethyl sulfoxide (DMSO) while CQ was prepared in distilled water. The prepared drug stock solutions were used immediately or stored at −80 °C for not longer than one month before use. Stock solutions were further diluted in serum free RPMI 1640 media (stock solution solvent final conc. 0.05%) before performing a 2-fold serial dilution to achieve dose ranges of 0.2 µM to 100 µM (Pht and derivatives), 7.8 to 2,000 nM (CQ) and 0.17 to 87.5 nM (DHA). 25 μL of the drug diluents were aliquoted into 96 well plates and used immediately. Alternatively, the stock solutions were diluted in distilled water, 2-fold serial dilution performed on a 96 well plate and allowed to air dry in a laminar flow hood after which dried plates were stored at 4 °C until use. SYBR Green I assay technique with additional modification was used for drug susceptibility testing of the parasites. Parasite cultures of >1% parasitemia were diluted to 1% parasitemia and 2% hematocrit and 200 μL were transferred onto drug pre-dosed plates and incubated at 37 °C for 90 hours, [40]. Drug exposure was terminated by freezing the drug plates at −80 °C for 24 hours after which lysis buffer containing (per liter) 100 mM Tris-HCl, 10 mM EDTA, 0.016% Saponin, 1.6% triton X-100 and 20X SYBR Green I dye was added and the sample incubated for 2 hours in the dark. Relative fluorescence units (RFU) were read using the Perkin Elmer Wallac 1420 fluorescence plate reader, with excitation and emission wavelengths of 485 nm and 535 nm respectively. The readouts values were aligned with corresponding drug doses and analysis performed by Graph-pad Prism software. The drug concentrations (x value) were transformed using X = Log[X] and plotted against the counts (y values) and the data analysed by non-linear regression (sigmoid dose-response/variable slope equation) to yield the IC50.

[2] = test system: synchronized Pf3D7 strain cultures (rings, trophozoites); assay: Stage-specificity and parasitemia titres on synchronized Pf3D7 cultures (Giemsa smears); assay type: cell-based, Plasmodium falciparum; details: for effect on ring stage parasitemia: 6 hours post exposure of ring stages; for effect on ring stage parasitemia / effect on mature blood stage parasite titres (parasitemia): Fig. 5; for effect on mature blood stage parasite titres (parasitemia): 16 hours after incubation with trophozoite stage; for effect on progression from trophozoites to schizonts / schizont morphology: concentration = individual IC50, up to 16 hours exposure; for effect on ring-stage growth and morphology: newly synchronized rings, concentration = individual IC50, monitored at 6 and 12 hours
Procedure: Next, we sought to determine stage-specificity of the antiplasmodial activity of the four active analogues (6a, 6h, 6m and 6u) on synchronized Pf3D7 strain cultures at 2% hematocrit and 1% parasitemia, with concentrations corresponding to individual drug IC50. To determine the effect of the compounds on both early and late ring stage parasites, the treatment was conducted on newly synchronized rings for 12 hours, and drug effect on parasite growth and morphology was monitored at 6 and 12 hours after exposure. Similarly, early trophozoites were exposed to each compound and incubated for 16 hours, and monitored at 6 and 16 hours post-exposure. The effect of the compounds on parasite morphology and development was compared in exposed and unexposed drug wells (Figs 3 and 4).
Figure 5 Effect of Pht analogues on parasite growth titres (Note: Graphical description of the inhibitory effect of select analogues on parasite growth titres 6 hours after incubation with ring-stages and 16 hours after drug incubation with trophozoite stage. Parasitemia percentage was derived by counting the number of infected erythrocytes from a total of 2,000 erythrocytes on Giemsa stained thin smears from each experiment. Bar diagrams represent the average of three different experiments).

[3] = Pf3D7, asynchronous culture, read-out: IC50 (SE) µM
[4] = Plasmodium falciparum, 3D7, Pf3D7, asynchronous culture, read-out: IC50 (SE) µg/mL

| SMILES | interaction when combined with CQ and DHA (P. falciparum W2) | IC50 (CQ resistant PfW2 strain) | IC50 ([1]; Pf3D7, asynchronous culture, listed as 6 u, read-out: IC50 (SE) µM) | IC50 [1, 3] | IC50 [1, 4] | effect on ring stage parasitemia [2] | effect on mature blood stage parasite titres (parasitemia) [2] | effect on progression from trophozoites to schizonts / schizont morphology ([2]; early trophozoites) | effect on ring-stage growth and morphology [2] | IC50 ([1]; Pf3D7, asynchronous culture, listed as 6 h, read-out: IC50 (SE) µM) | effect on trophozoites ([2]; early trophozoites, concentration = individual IC50, 6 hours after exposure) |
| --- | --- | --- | --- | --- | --- | --- | --- | --- | --- | --- | --- |
| CC(C)C[C@H](c1nc2ccccc2n1Cc1c[nH]nn1)N1C(=O)c2ccccc2C1=O [Compound 6u] | synergistic activity | 900 nM | < 5.14 µM | 0.7 µM | 0.3 µg/mL | reduction in ring stage parasitemia | negligible | did not interfere with development of parasite progression from trophozoites to schizonts | active against ring-stage forms |  |  |
| CC[C@@H](C)[C@H](c1nc2ccccc2n1Cc1cn(-c2ccc(F)cc2)nn1)N1C(=O)c2ccccc2C1=O [Compound 6h] | synergistic activity | 1300 nM |  | 0.9 µM | 0.7 µg/mL | did not affect parasite growth | reduction in parasitemia | presence of schizonts with abnormal morphology | did not arrest ring-stage maturation | < 5.14 µM | complete destruction of trophozoites |
